For eleven compounds, TGI results are on record in PubChem BioAssay (NCI).

Test systems include TK-10 renal; RPMI-8226 leukemia; OVCAR-4 ovarian; A549 NSCLC; SF-539 CNS; M14 melanoma; SK-MEL-5 melanoma; RXF 393 renal; NCI-H460 lung; MDA-MB-435; K-562 leukemia; CCRF-CEM leukemia; OVCAR-5 ovarian.
Common to all, as to assay: DTP human tumour cell line panel, 48 h

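Assay format: 96-well plates, 48-hour exposure. TGI: concentration producing complete growth inhibition.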 Bounds are passed on as bounds.

`Cn1c(=O)c2c(no[n+]2[O-])c2ccccc21`: the TGI (commonly the concentration at which net growth stops) was 56.5 µM in the test with TK-10 renal; 62 µM in the test with RPMI-8226 leukemia; 45.5 µM with OVCAR-4 ovarian; > 100 µM with A549 NSCLC; > 100 µM in the test on SF-539 CNS; 25.3 µM in the test with M14 melanoma. Moreover, the TGI was 26 µM in the test on SK-MEL-5 melanoma; 62 µM in the test on RXF 393 renal; 35.3 µM with NCI-H460 lung; 68.5 µM with MDA-MB-435; > 100 µM in the test with K-562 leukemia; 48.9 µM in the test with CCRF-CEM leukemia.
On to `O=C(NS(=O)(=O)OCC(Cl)(Cl)Cl)SCCC(F)(F)C(F)(F)C(F)(F)C(F)(F)C(F)(F)C(F)(F)F`, for which the TGI in the test with TK-10 renal amounted to 62.6 µM; in the test on RPMI-8226 leukemia, 40.5 µM; in the test on OVCAR-4 ovarian, 31.8 µM; with A549 NSCLC it was 94.6 µM; with SF-539 CNS it was 34.5 µM; in the test with M14 melanoma, 48.6 µM. In addition, the TGI was 44.6 µM with RXF 393 renal; 34.6 µM in the test with OVCAR-5 ovarian; 41.5 µM in the test with NCI-H460 lung; 55 µM in the test with MDA-MB-435; > 100 µM in the test with K-562 leukemia; 44.5 µM in the test with CCRF-CEM leukemia.
For the compound `COc1ccc(C(=O)/C=C/c2ccncc2)cc1OC`, the TGI amounted to 30 µM with TK-10 renal; 23.2 µM in the test on OVCAR-4 ovarian; 29.3 µM in the test on A549 NSCLC; 22.1 µM with SF-539 CNS; 27.8 µM in the test with M14 melanoma; 30.7 µM with SK-MEL-5 melanoma. The TGI with RXF 393 renal is 25.7 µM; in the test with OVCAR-5 ovarian, 27.3 µM; with MDA-MB-435, 28.1 µM; in the test with K-562 leukemia it was 6.11 µM; with CCRF-CEM leukemia, 18.6 µM.
For the compound `N#CC1(C#N)C2CCCCC23OC(=N)C1(C#N)C(c1ccccc1)O3` (stereo not given), the TGI in the test on TK-10 renal was 37.6 µM; with A549 NSCLC, > 100 µM; in the test with SF-539 CNS, 42.1 µM; with M14 melanoma it was 28.7 µM; in the test with SK-MEL-5 melanoma, 33 µM; in the test on RXF 393 renal it was > 100 µM. Further, the concentration for total growth inhibition (TGI) in the test on OVCAR-5 ovarian was 50.6 µM; with NCI-H460 lung, 49.7 µM; in the test with MDA-MB-435, 83.6 µM; in the test on K-562 leukemia, > 100 µM; with CCRF-CEM leukemia, > 100 µM.
With `CC1(C)OC2C(O)CN3CCS[C@H]3C2O1` (stereo not given in full), the concentration for total growth inhibition (TGI) in the test with TK-10 renal, in the test with RPMI-8226 leukemia, with OVCAR-4 ovarian, in the test on A549 NSCLC, in the test with M14 melanoma and with SK-MEL-5 melanoma was > 100 µM in each case. For the same compound, the TGI in the test with RXF 393 renal, in the test on OVCAR-5 ovarian, in the test on NCI-H460 lung, with MDA-MB-435, in the test on K-562 leukemia and in the test with CCRF-CEM leukemia was > 100 µM throughout.
Take `COc1ccc(N2C(=O)CS(=O)(=O)C2c2cccc(Oc3ccccc3)c2)cc1` (stereo not given): the concentration for total growth inhibition (TGI) with TK-10 renal is 8.46 µM; in the test on OVCAR-4 ovarian, 79.5 µM; with A549 NSCLC, > 100 µM; in the test on SF-539 CNS it was 15.1 µM; with M14 melanoma, 22.6 µM; in the test with SK-MEL-5 melanoma, 16.7 µM. The total growth inhibition concentration (TGI) with RXF 393 renal is 19 µM; in the test with OVCAR-5 ovarian, > 100 µM; with NCI-H460 lung, 8.03 µM; in the test with MDA-MB-435 it was 7.08 µM; in the test on K-562 leukemia, 8.44 µM; in the test on CCRF-CEM leukemia it was > 100 µM.
`Cc1cn(CCCCCOC(=O)NC(CCCN=C(N)N)C(=O)O)c(=O)[nH]c1=O` (stereo not given): the TGI was > 100 µM with TK-10 renal; 57 µM in the test on RPMI-8226 leukemia; > 100 µM in the test on OVCAR-4 ovarian; > 100 µM in the test with A549 NSCLC; > 100 µM in the test with SF-539 CNS; > 100 µM in the test with M14 melanoma. For the same compound, the total growth inhibition concentration (TGI) in the test with RXF 393 renal is > 100 µM; with OVCAR-5 ovarian, > 100 µM; in the test with NCI-H460 lung, > 100 µM; with MDA-MB-435, 47.5 µM; with K-562 leukemia, > 100 µM; in the test with CCRF-CEM leukemia it was > 100 µM.
Consider `Oc1ccc(-c2nc(-c3ccc(F)cc3)c(-c3ccc4ccccc4n3)[nH]2)cc1`, for which the TGI was 26 µM in the test with TK-10 renal; > 100 µM in the test with RPMI-8226 leukemia; 26.3 µM in the test with OVCAR-4 ovarian; 27 µM with A549 NSCLC; 22.9 µM in the test with M14 melanoma; 17.7 µM with SK-MEL-5 melanoma. Besides, the TGI in the test with RXF 393 renal was 31.9 µM; in the test with OVCAR-5 ovarian, 39.8 µM; in the test with NCI-H460 lung it was 18.4 µM; with MDA-MB-435, 29.6 µM; in the test with K-562 leukemia it was > 100 µM; in the test on CCRF-CEM leukemia it was > 100 µM.
Take `O=S(=O)(O)c1ccc(N=Nc2ccc(N=Nc3c(O)ccc4ccccc34)cc2)cc1`: the TGI in the test on TK-10 renal, with RPMI-8226 leukemia, with OVCAR-4 ovarian, in the test on A549 NSCLC, in the test with M14 melanoma and with SK-MEL-5 melanoma was > 100 µM throughout. In addition, the TGI in the test with RXF 393 renal, in the test with OVCAR-5 ovarian, in the test on NCI-H460 lung, with MDA-MB-435, with K-562 leukemia and with CCRF-CEM leukemia was > 100 µM in each case.
In the case of `COc1ccc(-c2nc(SCC(=O)N/N=C/c3ccc(O)c(OC)c3)[nH]c2-c2ccc(OC)cc2)cc1`, the TGI in the test on TK-10 renal was > 100 µM; in the test on OVCAR-4 ovarian, > 100 µM; with A549 NSCLC, > 100 µM; in the test with SF-539 CNS, 36.5 µM; in the test on M14 melanoma it was 56.6 µM; in the test with SK-MEL-5 melanoma, 31.7 µM. For the same compound, the TGI is 36.5 µM in the test with RXF 393 renal; 63.7 µM in the test on OVCAR-5 ovarian; 75.6 µM in the test on NCI-H460 lung; > 100 µM with MDA-MB-435; 57.8 µM in the test with K-562 leukemia; 92.2 µM in the test with CCRF-CEM leukemia.
In the case of `CCOC(=O)c1cc(C2(O)CCN(CC(C)CC)C2=O)c(-c2cc(C)no2)[nH]1` (stereo not given), the total growth inhibition concentration (TGI) in the test on RPMI-8226 leukemia, with OVCAR-4 ovarian, in the test on A549 NSCLC, in the test on SF-539 CNS, in the test on M14 melanoma and in the test on SK-MEL-5 melanoma was > 100 µM each time. Besides, the TGI with RXF 393 renal, in the test with OVCAR-5 ovarian, in the test with NCI-H460 lung, with MDA-MB-435, in the test with K-562 leukemia and in the test with CCRF-CEM leukemia was > 100 µM each time.
